Activity calls are given as the source filed them.
Tests used:
[1] = molecular target: Paired box protein Pax-8 (Homo sapiens, UniProt Q06710); assay: inhibitors of PAX8-driven TPO luciferase reporter, dose response, RMG-I cells, cherry-pick (AID 687027); assay type: functional, cell-based;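 note: luciferase reporter driven by Pax8 target thyroperoxidase promoter measured by SteadyGlo luminescence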
[2] = NIH:OVCAR-3 ovarian cancer cell cytotoxicity, dose response, PAX8 inhibitor project, plate reader, dry powder samples (AID 743044); assay type: functional, cell-based
[3] = cytotoxicity in OVCAR8 ovarian cancer cells, dose response, PAX8 project, cell-based, plate reader, dry powder samples (AID 743197); assay type: functional; conditions: OVCAR-8
[4] = A2780 ovarian cancer cell cytotoxicity, dose response, cytotoxicity control, plate reader, dry powder samples (AID 743046); assay type: functional, cell-based
[5] = molecular target: T1, Estrogen receptor (Homo sapiens, UniProt P03372);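 note: potency for inhibiting coactivator peptide recruitment to the receptor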
T1 sequence (P03372 whole entry): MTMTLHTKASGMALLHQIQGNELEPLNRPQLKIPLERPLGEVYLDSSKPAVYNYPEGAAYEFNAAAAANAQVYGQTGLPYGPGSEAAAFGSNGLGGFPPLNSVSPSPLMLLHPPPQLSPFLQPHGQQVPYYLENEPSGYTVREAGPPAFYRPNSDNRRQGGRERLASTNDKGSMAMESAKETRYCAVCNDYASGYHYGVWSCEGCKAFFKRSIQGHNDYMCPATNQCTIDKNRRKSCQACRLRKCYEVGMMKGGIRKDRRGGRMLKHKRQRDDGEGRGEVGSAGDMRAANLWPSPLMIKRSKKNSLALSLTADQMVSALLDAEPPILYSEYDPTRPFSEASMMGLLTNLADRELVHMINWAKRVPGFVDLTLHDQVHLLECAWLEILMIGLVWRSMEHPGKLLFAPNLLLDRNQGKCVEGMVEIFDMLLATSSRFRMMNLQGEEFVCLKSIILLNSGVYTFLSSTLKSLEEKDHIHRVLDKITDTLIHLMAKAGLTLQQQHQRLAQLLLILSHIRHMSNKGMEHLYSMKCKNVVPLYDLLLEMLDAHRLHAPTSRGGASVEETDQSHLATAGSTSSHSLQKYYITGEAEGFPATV

[6] = molecular target: T2, Ubiquitin-conjugating enzyme E2 N (Homo sapiens, UniProt P61088); assay type: functional;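 note: Dose-response confirmation in a TR-FRET assay detecting UBC13-driven polyubiquitin chain formation, inhibition measured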
T2 sequence (P61088 whole entry): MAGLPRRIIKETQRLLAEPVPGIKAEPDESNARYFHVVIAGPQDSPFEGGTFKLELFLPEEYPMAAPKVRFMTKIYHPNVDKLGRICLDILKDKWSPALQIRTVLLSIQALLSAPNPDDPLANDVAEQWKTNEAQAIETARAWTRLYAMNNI

[7] = molecular target: 72 kDa type IV collagenase (Homo sapiens, UniProt P08253); assay: Dose Response validation of uHTS RPN11 inhibitor hits using a MMP-2 Fluorescence assay.; assay type: functional
[8] = molecular target: 26S proteasome non-ATPase regulatory subunit 14 (Homo sapiens, UniProt O00487); assay: inhibition of proteasome subunit RPN11 – biochemical, fluorescence polarization, uHTS hits, confirmation (AID 602368); assay type: functional
[9] = molecular target: Prothrombin (Bos taurus, UniProt P00735); assay: thrombin inhibition, dose response, biochemical, fluorescence polarization, uHTS hits (AID 602369); assay type: functional
[10] = molecular target: Genome polyprotein (dengue virus type 2, UniProt P29990); assay: Dengue-2 NS5 methyltransferase inhibitors, primary screen, biochemical, confirmation dose response (AID 588689); assay type: functional
[11] = molecular target: Trypsin (Sus scrofa, UniProt P00761); assay: porcine trypsin inhibitors, dose response, selectivity assay for Rce1 protease inhibitor project, biochemical, quenched peptide fluorescence, cherry-pick (AID 488789)
[12] = molecular target: T3, CAAX prenyl protease 2 (Saccharomyces cerevisiae S288c, UniProt Q03530); assay type: biochemical
T3 sequence (Q03530 whole entry): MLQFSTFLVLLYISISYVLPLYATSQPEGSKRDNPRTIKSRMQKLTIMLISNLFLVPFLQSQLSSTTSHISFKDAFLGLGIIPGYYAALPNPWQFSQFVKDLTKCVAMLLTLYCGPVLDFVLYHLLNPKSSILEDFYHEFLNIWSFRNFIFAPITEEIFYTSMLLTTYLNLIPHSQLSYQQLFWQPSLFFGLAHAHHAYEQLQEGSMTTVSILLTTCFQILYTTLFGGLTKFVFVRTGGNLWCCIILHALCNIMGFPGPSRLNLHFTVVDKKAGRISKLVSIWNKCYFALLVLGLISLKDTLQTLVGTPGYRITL

[13] = molecular target: T4, Endoribonuclease toxin MazF (Escherichia coli K-12, UniProt P0AE70); assay: MazF toxin RNase activators, dose response, biochemical, fluorescence, single-stranded RNA substrate, uHTS hits (AID 588481); assay type: functional
T4 sequence (P0AE70 whole entry): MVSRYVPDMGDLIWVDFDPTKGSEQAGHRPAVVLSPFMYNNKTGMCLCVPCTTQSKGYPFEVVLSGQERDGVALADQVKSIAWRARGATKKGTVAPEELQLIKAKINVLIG

[14] = molecular target: T4, Endoribonuclease toxin MazF; assay: fluorescent RNA oligo signal without MazF, dose response, counter-screen for MazEF activator project, biochemical, fluorescence, single-stranded RNase substrate (AID 588502); assay type: functional
[15] = molecular target: Cytochrome P450 2C9 (Homo sapiens, UniProt P11712)
[16] = molecular target: Cytochrome P450 2C19 (Homo sapiens, UniProt P33261); assay: Cytochrome panel assay with activity outcomes. Panel member name: p450-cyp2c19 Compounds with AC50 equal or less than 10 uM are considered active; assay type: functional; conditions: read-out: AC50
[17] = molecular target: T5, Cytochrome P450 1A2 (Homo sapiens, UniProt P05177);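 note: PubChem cytochrome P450 panel assay, CYP1A2 panel member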
T5 sequence (P05177 whole entry): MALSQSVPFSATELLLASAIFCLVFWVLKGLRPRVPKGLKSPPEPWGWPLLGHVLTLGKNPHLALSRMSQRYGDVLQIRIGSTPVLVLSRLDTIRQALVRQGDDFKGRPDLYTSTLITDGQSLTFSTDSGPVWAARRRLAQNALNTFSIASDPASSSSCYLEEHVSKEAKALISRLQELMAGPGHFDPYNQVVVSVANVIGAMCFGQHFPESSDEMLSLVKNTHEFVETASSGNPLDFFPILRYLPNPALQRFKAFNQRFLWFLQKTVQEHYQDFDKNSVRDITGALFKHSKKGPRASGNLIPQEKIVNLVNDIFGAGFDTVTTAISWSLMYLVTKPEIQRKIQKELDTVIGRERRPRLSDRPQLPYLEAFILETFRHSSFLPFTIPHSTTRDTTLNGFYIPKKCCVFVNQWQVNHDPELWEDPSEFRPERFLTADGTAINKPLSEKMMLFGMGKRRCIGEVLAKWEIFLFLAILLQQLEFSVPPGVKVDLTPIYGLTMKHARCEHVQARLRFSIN

[18] = THP-1 cell cytotoxicity, dose response, cytotoxicity control for non-replicating M. tuberculosis project (AID 489025); assay type: functional
[19] = cytotoxicity in HEK-293T cells, dose response, cytotoxicity control for BCR NF-kB inhibitor project, luminescence, B-cell screen hits (AID 489021); assay type: functional, cell-based;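 note: HEK-293T cells carrying an NF-kB luciferase reporter; cells exposed to compound for about 14 hours before viability readout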
[20] = molecular target: E3 ubiquitin-protein ligase Mdm2 (Homo sapiens, UniProt Q00987); assay: enhancers of MDM2-luciferase reporter signal, concentration-effect titration, project on inhibitors of MDM2 ubiquitin ligase, cellular assay, luminescent readout, 384-well plate format (AID 1394); assay type: functional;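 note: MDM2 E3 inhibitors raise luminescence so EC50 is for signal enhancement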
[21] = molecular target: Mitogen-activated protein kinase 10 (Homo sapiens, UniProt P53779); assay: Dose response biochemical screening assay for inhibitors of c-Jun N-Terminal Kinase 3 (JNK3). [Related pubchem assays: 746 ]
Chain of Mitogen-activated protein kinase 10 (P53779 whole entry): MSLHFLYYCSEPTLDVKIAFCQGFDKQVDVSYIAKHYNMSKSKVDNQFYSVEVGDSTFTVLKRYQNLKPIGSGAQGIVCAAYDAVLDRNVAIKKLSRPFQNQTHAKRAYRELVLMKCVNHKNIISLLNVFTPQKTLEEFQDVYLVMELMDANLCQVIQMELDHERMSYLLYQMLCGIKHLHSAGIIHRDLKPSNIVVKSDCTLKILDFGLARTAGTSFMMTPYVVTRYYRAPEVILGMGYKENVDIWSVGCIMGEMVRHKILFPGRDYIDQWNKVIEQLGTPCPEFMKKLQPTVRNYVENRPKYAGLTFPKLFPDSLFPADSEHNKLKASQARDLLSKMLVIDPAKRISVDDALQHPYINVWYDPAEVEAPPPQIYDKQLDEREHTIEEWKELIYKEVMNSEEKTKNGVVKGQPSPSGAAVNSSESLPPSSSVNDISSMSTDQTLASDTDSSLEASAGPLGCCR

Chain of 26S proteasome non-ATPase regulatory subunit 14 (O00487 whole entry): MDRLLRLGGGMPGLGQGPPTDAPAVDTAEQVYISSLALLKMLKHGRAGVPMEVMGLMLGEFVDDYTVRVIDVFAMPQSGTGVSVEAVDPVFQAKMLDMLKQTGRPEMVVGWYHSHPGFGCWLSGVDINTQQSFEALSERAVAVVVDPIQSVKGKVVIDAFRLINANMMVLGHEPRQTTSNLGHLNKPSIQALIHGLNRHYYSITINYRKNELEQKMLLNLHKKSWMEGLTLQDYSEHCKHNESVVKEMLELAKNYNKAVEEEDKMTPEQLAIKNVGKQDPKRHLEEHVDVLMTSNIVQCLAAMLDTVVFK
Chain of Cytochrome P450 2C19 (P33261 whole entry): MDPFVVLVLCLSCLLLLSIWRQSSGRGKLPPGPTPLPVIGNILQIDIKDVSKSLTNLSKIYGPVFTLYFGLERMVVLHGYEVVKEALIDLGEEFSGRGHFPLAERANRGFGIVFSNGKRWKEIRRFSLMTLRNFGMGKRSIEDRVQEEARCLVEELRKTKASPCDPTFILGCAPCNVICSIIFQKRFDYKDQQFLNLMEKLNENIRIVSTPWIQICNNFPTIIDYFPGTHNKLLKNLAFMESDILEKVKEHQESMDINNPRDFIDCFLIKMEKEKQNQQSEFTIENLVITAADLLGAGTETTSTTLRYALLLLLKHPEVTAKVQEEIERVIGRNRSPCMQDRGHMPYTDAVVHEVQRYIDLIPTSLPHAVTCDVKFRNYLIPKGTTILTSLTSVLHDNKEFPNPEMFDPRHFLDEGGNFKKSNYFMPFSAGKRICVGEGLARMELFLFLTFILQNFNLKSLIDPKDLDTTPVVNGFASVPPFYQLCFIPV
Chain of Genome polyprotein (P29990 2492-3391 limits assumed): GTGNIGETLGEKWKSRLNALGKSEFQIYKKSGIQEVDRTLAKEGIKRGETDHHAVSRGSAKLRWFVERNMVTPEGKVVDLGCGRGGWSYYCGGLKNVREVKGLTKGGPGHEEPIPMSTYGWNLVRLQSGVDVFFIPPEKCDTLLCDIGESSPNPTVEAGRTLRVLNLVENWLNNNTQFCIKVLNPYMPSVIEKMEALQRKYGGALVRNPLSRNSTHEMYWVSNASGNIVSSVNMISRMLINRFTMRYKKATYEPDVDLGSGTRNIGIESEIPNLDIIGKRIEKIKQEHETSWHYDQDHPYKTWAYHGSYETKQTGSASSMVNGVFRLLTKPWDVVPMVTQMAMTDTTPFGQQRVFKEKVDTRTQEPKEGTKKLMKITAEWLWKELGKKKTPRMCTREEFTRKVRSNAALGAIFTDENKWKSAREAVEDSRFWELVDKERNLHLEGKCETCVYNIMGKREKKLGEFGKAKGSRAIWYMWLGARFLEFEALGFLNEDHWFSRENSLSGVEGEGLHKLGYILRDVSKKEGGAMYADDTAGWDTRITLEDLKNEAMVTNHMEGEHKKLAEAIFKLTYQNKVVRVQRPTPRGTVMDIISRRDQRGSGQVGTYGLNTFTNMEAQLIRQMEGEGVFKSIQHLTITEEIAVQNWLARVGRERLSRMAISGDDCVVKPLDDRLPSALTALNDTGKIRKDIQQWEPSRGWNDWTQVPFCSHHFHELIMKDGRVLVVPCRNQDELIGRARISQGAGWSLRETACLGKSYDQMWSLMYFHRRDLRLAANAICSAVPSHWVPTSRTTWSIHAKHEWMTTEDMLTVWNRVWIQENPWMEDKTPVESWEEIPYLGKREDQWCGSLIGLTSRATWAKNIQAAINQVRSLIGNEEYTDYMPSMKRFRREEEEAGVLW
Chain of 72 kDa type IV collagenase (P08253 whole entry): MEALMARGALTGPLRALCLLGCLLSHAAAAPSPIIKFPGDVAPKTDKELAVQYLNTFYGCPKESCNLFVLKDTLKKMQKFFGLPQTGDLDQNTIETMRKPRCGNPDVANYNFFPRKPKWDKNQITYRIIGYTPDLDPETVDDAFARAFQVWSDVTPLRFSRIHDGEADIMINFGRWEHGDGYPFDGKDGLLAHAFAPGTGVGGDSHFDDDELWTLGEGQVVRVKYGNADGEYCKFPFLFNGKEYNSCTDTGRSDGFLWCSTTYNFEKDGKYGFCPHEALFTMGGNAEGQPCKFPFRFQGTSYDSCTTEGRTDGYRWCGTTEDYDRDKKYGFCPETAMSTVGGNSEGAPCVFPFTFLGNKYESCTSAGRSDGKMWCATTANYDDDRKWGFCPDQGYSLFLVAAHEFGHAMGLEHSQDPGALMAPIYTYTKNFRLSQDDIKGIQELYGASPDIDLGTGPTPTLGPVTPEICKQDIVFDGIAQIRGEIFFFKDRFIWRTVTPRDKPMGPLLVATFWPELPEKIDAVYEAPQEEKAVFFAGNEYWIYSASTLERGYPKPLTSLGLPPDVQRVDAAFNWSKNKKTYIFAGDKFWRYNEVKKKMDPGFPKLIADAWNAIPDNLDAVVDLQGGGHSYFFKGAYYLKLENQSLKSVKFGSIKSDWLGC
Chain of Cytochrome P450 2C9 (P11712 whole entry): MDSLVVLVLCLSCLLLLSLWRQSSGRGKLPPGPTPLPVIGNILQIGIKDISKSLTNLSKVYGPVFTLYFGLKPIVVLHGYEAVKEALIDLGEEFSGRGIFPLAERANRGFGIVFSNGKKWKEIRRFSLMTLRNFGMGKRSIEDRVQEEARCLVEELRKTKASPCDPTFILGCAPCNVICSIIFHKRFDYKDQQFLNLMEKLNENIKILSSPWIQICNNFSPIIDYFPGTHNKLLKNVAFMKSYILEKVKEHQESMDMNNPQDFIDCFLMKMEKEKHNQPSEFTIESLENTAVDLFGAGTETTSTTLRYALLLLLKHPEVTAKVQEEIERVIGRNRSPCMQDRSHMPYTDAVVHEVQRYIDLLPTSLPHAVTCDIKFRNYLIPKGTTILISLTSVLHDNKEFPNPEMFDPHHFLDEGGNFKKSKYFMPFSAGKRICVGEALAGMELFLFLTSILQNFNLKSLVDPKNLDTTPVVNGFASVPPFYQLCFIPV
Chain of Trypsin (P00761 whole entry): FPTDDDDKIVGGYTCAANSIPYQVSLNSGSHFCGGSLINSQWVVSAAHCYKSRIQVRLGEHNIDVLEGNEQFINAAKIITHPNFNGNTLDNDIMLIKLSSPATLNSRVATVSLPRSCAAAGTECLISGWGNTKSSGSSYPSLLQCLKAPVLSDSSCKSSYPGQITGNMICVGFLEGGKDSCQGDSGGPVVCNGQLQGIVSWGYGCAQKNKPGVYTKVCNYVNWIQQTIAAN
Chain of Paired box protein Pax-8 (Q06710 whole entry): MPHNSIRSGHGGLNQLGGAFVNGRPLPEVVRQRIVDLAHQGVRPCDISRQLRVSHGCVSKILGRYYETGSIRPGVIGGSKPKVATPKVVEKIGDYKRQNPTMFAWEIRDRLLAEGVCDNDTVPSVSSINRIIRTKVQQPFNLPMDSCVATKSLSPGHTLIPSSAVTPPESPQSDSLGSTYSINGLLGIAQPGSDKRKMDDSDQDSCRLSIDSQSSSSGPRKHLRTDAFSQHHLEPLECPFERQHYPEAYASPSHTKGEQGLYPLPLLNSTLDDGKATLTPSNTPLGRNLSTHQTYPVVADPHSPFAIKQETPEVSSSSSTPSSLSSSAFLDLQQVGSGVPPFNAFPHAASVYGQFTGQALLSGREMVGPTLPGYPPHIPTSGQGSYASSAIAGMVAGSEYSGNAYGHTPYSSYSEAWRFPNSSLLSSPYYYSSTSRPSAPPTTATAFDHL
Chain of E3 ubiquitin-protein ligase Mdm2 (Q00987 whole entry): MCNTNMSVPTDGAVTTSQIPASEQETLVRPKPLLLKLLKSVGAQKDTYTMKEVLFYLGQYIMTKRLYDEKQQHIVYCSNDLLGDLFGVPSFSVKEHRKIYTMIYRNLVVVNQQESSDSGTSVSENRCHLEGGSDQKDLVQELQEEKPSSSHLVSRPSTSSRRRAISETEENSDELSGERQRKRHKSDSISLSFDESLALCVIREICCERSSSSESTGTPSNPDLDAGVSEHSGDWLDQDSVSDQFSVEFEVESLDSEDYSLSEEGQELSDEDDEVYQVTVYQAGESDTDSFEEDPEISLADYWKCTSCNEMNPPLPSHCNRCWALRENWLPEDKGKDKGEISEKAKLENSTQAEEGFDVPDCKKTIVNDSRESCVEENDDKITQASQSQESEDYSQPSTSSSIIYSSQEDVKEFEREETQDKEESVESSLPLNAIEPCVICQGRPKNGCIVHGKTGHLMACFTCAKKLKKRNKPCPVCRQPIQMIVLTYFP

C[C@H]1CCCCO[C@@H](CN(C)Cc2ccc(Cl)c(Cl)c2)[C@@H](C)CN([C@@H](C)CO)C(=O)c2cc(NC(=O)Nc3ccc(C(F)(F)F)cc3)ccc2O1
AC50 [1]: 4.77 µM (active) | AC50 [2]: 22.2 µM (active) | AC50 [3]: > 70 µM (inactive) | AC50 [4]: 59.1 µM (active)

COC(=O)c1ccc2c(=O)n(CCCCCC(=O)NCc3ccc4c(c3)OCO4)c(=O)[nH]c2c1
IC50 [5]: 14.8 µM (active)

CC(C)n1ncc2c(C(=O)Nc3ccc(S(N)(=O)=O)cc3)cc(C3CC3)nc21
IC50 [6]: > 20 µM (inactive) | IC50 [7]: > 100 µM (inactive) | IC50 [8]: 6.85 µM (active) | IC50 [9]: 73.6 µM (active)

O=C1NN(c2ccccc2)C(=O)/C1=C\c1cccc(OC(=O)c2cccs2)c1
IC50 [10]: 21.2 µM (active)

Cc1cc(OCC(=O)N2CCC(C(=O)O)CC2)c2c(C)cc(=O)oc2c1
AC50 [11]: 21.7 µM (active) | AC50 [12]: 15.6 µM (active)

Cc1ccc(/C=C2/C(=O)NC(=O)N(CC3CCCO3)C2=O)s1 (stereo not given)
IC50 [10]: > 100 µM (active)

O=C1NC(=O)N(C2CCCCC2)C(=O)/C1=C\C=C\Nc1ccccc1
EC50 [13]: > 99 µM (inactive) | EC50 [14]: 9.49 µM (active)

CC1(C)CC2(CC(C)(C(=O)CSc3nc4ccccc4s3)OC2=O)C(=O)O1 (stereo not given)
AC50 [15]: inconclusive | AC50 [16]: 8.91 µM (inconclusive) | AC50 [17]: 28.2 µM (inconclusive)

Cc1ccc(CO/N=C\Cc2snc(Sc3ncc(C(F)(F)F)cc3Cl)c2C#N)cc1
IC50 [7]: > 100 µM (inactive) | IC50 [8]: 14.6 µM (active) | IC50 [9]: 54.2 µM (active)

Cn1cccc1/C=N\NC(=O)C1COc2ccccc2O1 (stereo not given)
CC50 [18]: > 40 µM (active)

Cn1c(=O)n(C)c2cc(NC(=O)CSc3nnc(-c4ccccc4O)n3-c3ccccc3)ccc21
IC50 [19]: > 80 µM (inactive)

CC/C(=N/Nc1cccc(C)c1)c1cnnc(SC)n1
EC50 [13]: > 99 µM (inactive) | EC50 [14]: > 99 µM (inactive)

Brc1ccc2cccnc2c1
AC50 [15]: inconclusive | AC50 [16]: 0.316 µM (inconclusive)

Cc1ccc(C(=O)NN2C(=O)/C(=C/c3cccn3C)SC2=S)cc1
EC50 [20]: 0.09 µM (not active)

Cc1c(CCO)c(O)oc2nnc(-c3ccccc3)c1-2
IC50 [19]: > 80 µM (inactive)

C/C(=N\CCCn1ccnc1)C1=C(O)c2ccccc2C1=O
IC50 [21]: 35.7 µM (not active)

Source: ChEMBL document CHEMBL1201862, “PubChem BioAssay data set” (2004)
